Test results as given in patent US9604925B2, “Class II HMG-CoA reductase inhibitors and methods of use” (Purdue Research Foundation, priority 2012, dated 2017).
In brackets after ≈: the same amount, converted by molar mass. Marks after values point to notes of the source that are not given here.

Legend:
[1] = system: Staphylococcus aureus ATCC 6538 adherent organisms (biofilm); assay: MIC/MBC in adherent-cell biofilm of S. aureus ATCC 6538; assay type: cell-based; settings: for Adherent organisms (biofilm) MIC^b: S. aureus ATCC 6538, 20 h; for Adherent organisms (biofilm) MBC^b: S. aureus ATCC 6538, regrowth 20 h in antibiotic-free MHB
Method: An adherent biofilm for susceptibility testing was formed using a clinical isolate of Staphylococcus aureus (ATCC 6538). S. aureus biofilms were prepared in a tissue culture non-treated polystyrene 96-well plate (Corning) and washed with phosphate-buffered saline (PBS) to remove unbound bacteria. Subsequently, serial twofold dilutions of the compounds in MHB were added to wells containing adherent organisms. The polystyrene plates were incubated for 20 h at 37° C. The MIC was taken as the lowest drug concentration at which observable growth was inhibited.

[2] = system: C. elegans infected with MRSA; assay: Treatment of C. elegans infected with MRSA; settings: MRSA-infected worms, 100 μM
MRSA = assay: Time-kill assay against MRSA in MHB; settings: 3× MIC
[3] = system: vancomycin resistant Enterococcus faecalis (VRE) ATCC 51299; assay: MIC/MBC micro dilution against VRE; settings: VRE ATCC 51299, MHB, 20 hours
[4] = system: Bacillus anthracis Sterne strain (34F2); assay type: cell-based
[5] = system: Candida albicans ATCC 18804; assay: MIC/MFC against Candida albicans in YM broth; assay type: cell-based; settings: yeast medium broth
Method: Antifungal activities of 22 HMG-CoA Reductase inhibitors were initially tested at 100 μM concentration against Candida albicans ATCC 18804.

Bacillus cereus = assay: Screen and MIC/MBC against Bacillus cereus; assay type: cell-based
Listeria monocytogenes = assay: Screen and MIC/MBC against Listeria monocytogenes; assay type: cell-based
[6] = system: methicillin-resistant Staphylococcus aureus (MRSA) ATCC 43300; assay: MIC/MBC micro dilution against MRSA
[7] = system: Staphylococcus aureus ATCC 6538 planktonic organisms (not in biofilm); assay: MIC/MBC against planktonic S. aureus ATCC 6538; assay type: cell-based
S. aureus HMGR = S. aureus HMGR (Staphylococcus aureus, UniProt Q9FD86); assay: biochemical
Sequence of S. aureus HMGR (Q9FD86 entry or part of it): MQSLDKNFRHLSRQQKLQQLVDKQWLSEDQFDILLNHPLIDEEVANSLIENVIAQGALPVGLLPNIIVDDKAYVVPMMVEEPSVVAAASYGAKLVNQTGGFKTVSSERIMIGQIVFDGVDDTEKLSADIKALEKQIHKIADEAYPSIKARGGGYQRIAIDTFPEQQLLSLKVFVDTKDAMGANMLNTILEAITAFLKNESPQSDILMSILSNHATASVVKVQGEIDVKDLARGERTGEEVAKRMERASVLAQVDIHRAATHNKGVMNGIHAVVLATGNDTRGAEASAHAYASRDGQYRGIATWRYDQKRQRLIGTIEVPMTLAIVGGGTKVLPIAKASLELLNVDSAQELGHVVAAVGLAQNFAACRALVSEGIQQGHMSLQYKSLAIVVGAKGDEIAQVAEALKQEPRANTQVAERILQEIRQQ

J774A.1 cells = assay: In vitro cell viability/cytotoxicity MTS assay; assay type: cell-based; settings: 100 μM, 24 hours
Method: Cytotoxicity of the compounds was evaluated using J774A.1 cells (mitochondrial function) in the CellTiter 96® AQueous Non-Radioactive Cell Proliferation Assay (Promega). […] Formazan is measured by measuring the absorbance at 490 nm. Briefly, ˜2×10^4 J774A.1 cells suspended in 200 μL DMEM supplemented with 10% fetal bovine serum (FBS), L-glutamine, NaHCO3, pyridoxine-HCl, and […] glucose and preserved with 1% penicillin-streptomycin solution were seeded in 96-well plates and incubated at 37° C. in a 5% CO2 atmosphere. The cells were cultured for 24 hours (60% confluency) before the assays. The J774A.1 cells were further incubated with 100 μM of compounds (2f, […], 2j, and 2e) and DMSO as a control for 24 hours. The culture media was discarded, and the cells in each well were washed with PBS and re-suspended with 100 μL of cell culture media prior to addition of the assay reagent. The plates were incubated for 4 hours at 37° C. in a humidified 5% CO2 atmosphere. The absorbance at 490 nm was recorded using a 96-well Elisa plate reader (SoftMax ProInc., USA). Results were expressed as the percentage mean absorbance by cells upon incubation with various treatments (compounds 2f, 2j, 2i, and 2e) with respect to incubation with DMSO. The results are expressed as means from six measurements±SD.

Brucella abortus = assay type: cell-based
[8] = system: vancomycin intermediate Staphylococcus aureus (VISA) NRS1; assay: MIC/MBC against clinical VISA isolate
Bacillus subtilis = assay: Screen and MIC/MBC against Bacillus subtilis; assay type: cell-based
[9] = system: clinical methicillin-resistant Staphylococcus aureus (MRSA) isolates; assay: MIC/MBC against clinical MRSA isolates

## CN[C@H](CC(C)C)C(=O)N[C@H]1C(=O)N[C@@H](CC(N)=O)C(=O)N[C@H]2C(=O)N[C@H]3C(=O)N[C@H](C(=O)N[C@H](C(=O)O)c4cc(O)cc(O)c4-c4cc3ccc4O)[C@H](O)c3ccc(c(Cl)c3)Oc3cc2cc(c3O[C@@H]2O[C@H](CO)[C@@H](O)[C@H](O)[C@H]2O[C@H]2C[C@](C)(N)[C@H](O)[C@H](C)O2)Oc2ccc(cc2Cl)[C@H]1O [Vancomycin, vancomycin, reference compound]
[1]
  Adherent organisms (biofilm) MIC^b: 2 µM
  Adherent organisms (biofilm) MBC^b: 8 µM
[2]; 16 hours treatment
  Log CFU/worm: 3.26 ± 0.20 Log CFU/worm
[2]; versus DMSO control
  Log Reduction: 1.78*
MRSA
  time-kill of MRSA cells: failed to reduce the number of CFU by 3-log10 within a 10 hour window

## CC(C)CCCCc1ccc(NS(=O)(=O)c2ccc(O)c(C(=O)O)c2)cc1 [Compound 2j, 2-hydroxy-5-[N-(4-(5-methylhexyl)phenyl)sulfamoyl]benzoic acid]
[3]
  VRE MBC: 128/128
[1]
  Adherent organisms (biofilm) MIC^b: 128 µM
  Adherent organisms (biofilm) MBC^b: 128 µM
[4]; 100 μM
  inhibition of growth in initial screen: showed inhibition of growth
[4]; MHB
  Bacillus anthracis MBC: 32/32
  Bacillus anthracis MIC: 32/32
[5]
  Candida albicans MFC: 128/>128
  Candida albicans MIC: 128/>128
Bacillus cereus; 100 μM
  inhibition of growth in initial screen: showed inhibition of growth
Bacillus cereus; MHB
  Bacillus cereus MBC: 64/64
  Bacillus cereus MIC: 64/64
Listeria monocytogenes; 100 μM
  inhibition of growth in initial screen: showed inhibition of growth
Listeria monocytogenes; MHB
  Listeria monocytogenes MBC: 128/>128
  Listeria monocytogenes MIC: 128/>128
[6]; MRSA ATCC 43300, MHB, 20 hours, Table 2
  MRSA MBC: 64/64
[6]; Staphylococcus aureus
  MBC: 64 µM (≈ 25.1 µg/mL)
  MIC: 64 µM (≈ 25.1 µg/mL)
[7]
  Planktonic organisms (not in biofilm) MBC: 64 µM
  Planktonic organisms (not in biofilm) MIC: 64 µM
S. aureus HMGR
  IC50: 22 µM
J774A.1 cells
  percentage mean absorbance at 490 nm (MTS) versus DMSO: no significant differences in percentage mean absorption
Brucella abortus; 100 μM
  inhibition of growth in initial screen: showed inhibition of growth
Brucella abortus; MHB
  Brucella abortus (single value, head does not say MIC or MBC): 64 µM
[8]
  MBC: 16 µM (≈ 6.26 µg/mL)
  MIC: 16 µM (≈ 6.26 µg/mL)
Bacillus subtilis; 100 μM
  inhibition of growth in initial screen: showed inhibition of growth
Bacillus subtilis; MHB
  Bacillus subtilis MBC: 32/32
  Bacillus subtilis MIC: 32/32
[9]; MRSA / NRS123 / USA400
  MBC: 32 µM (≈ 12.5 µg/mL)
  MIC: 16 µM (≈ 6.26 µg/mL)
[9]; MRSA / NRS382 / USA100
  MBC: 32 µM (≈ 12.5 µg/mL)
  MIC: 16 µM (≈ 6.26 µg/mL)
[9]; MRSA / NRS383 / USA200
  MBC: 32 µM (≈ 12.5 µg/mL)
  MIC: 16 µM (≈ 6.26 µg/mL)
[9]; MRSA / NRS384 / USA300
  MBC: 32 µM (≈ 12.5 µg/mL)
  MIC: 16 µM (≈ 6.26 µg/mL)
[9]; MRSA / NRS385 / USA500
  MBC: 16 µM (≈ 6.26 µg/mL)
  MIC: 16 µM (≈ 6.26 µg/mL)
[9]; MRSA / NRS386 / USA700
  MBC: 16 µM (≈ 6.26 µg/mL)
  MIC: 16 µM (≈ 6.26 µg/mL)
[9]; MRSA / NRS387 / USA800
  MBC: 32 µM (≈ 12.5 µg/mL)
  MIC: 16 µM (≈ 6.26 µg/mL)
[9]; MRSA / NRS483
  MBC: 32 µM (≈ 12.5 µg/mL)
  MIC: 16 µM (≈ 6.26 µg/mL)
[9]; MRSA / NRS484
  MBC: 32 µM (≈ 12.5 µg/mL)
  MIC: 16 µM (≈ 6.26 µg/mL)
